In US20260242419A1, “A CYCLIC PEPTIDE FOR TRAPPING INTERLEUKIN-1 BETA” (Merck Sharp & Dohme LLC, priority 2023, published 2026):
Starred links: 1 amine or outer side, 2 acyl side, 3 side chain; linkers in the order of their positions; H or OH if unused. Non-standard residues stand in square brackets, D forms with d. Residues, ends and D or L forms follow the SMILES beside them. Ala(2-carboxypyrimidin-5-yl) = N[C@@H](Cc1cnc(C(=O)O)nc1)C(=O)O; dPro(4R-(4-pyridylmethyl)) = O=C(O)[C@H]1C[C@@H](Cc2ccncc2)CN1; Trp(βS-Me,4-F) = C[C@@H](c1c[nH]c2cccc(F)c12)[C@H](N)C(=O)O; Bip(4'-COOH) = N[C@@H](Cc1ccc(-c2ccc(C(=O)O)cc2)cc1)C(=O)O; dPro(4R-Bzl(4-F)) = O=C(O)[C@H]1C[C@@H](Cc2ccc(F)cc2)CN1; dPro(3S-(4-F-Bn)) = O=C(O)[C@@H]1NCC[C@@H]1Cc1ccc(F)cc1; X31 = O=C(O)c1ccc([C@@H](O)[C@H](N[*:1])C(=O)[*:2])cc1; X27 = COc1ncc(-c2ccc(C[C@H](N[*:1])C(=O)[*:2])cc2)cn1; X32 = Cn1cnc(-c2ccc(C[C@H](N[*:1])C(=O)[*:2])cc2)c1; X12 = Cn1ccnc1-c1ccc(C[C@H](N[*:1])C(=O)[*:2])cc1; X41 = O=C([C@@H](N[*:1])[C@@H](O)c1ccncc1)[*:2]; Ala(pyrimidin-5-yl) = N[C@@H](Cc1cncnc1)C(=O)O; Phe(4-COOH) = N[C@@H](Cc1ccc(C(=O)O)cc1)C(=O)O; X30 = O=C([C@@H](N[*:1])[C@H](O)c1ccncc1)[*:2]; X44 = CC(=O)N1CCN(C[C@H](N[*:1])C(=O)[*:2])CC1; Bip = N[C@@H](Cc1ccc(-c2ccccc2)cc1)C(=O)O; Pro(cis-4-F) = O=C(O)[C@@H]1C[C@H](F)CN1; Phe(4-F) = N[C@@H](Cc1ccc(F)cc1)C(=O)O; Dap(CONH2) = NC(=O)NC[C@H](N)C(=O)O; d(αMeD) = C[C@@](N)(CC(=O)O)C(=O)O; 4Pal = N[C@@H](Cc1ccncc1)C(=O)O; Dab = NCC[C@H](N)C(=O)O; Aib = CC(C)(N)C(=O)O

Target: T1, IL-1β (Homo sapiens, UniProt P01584)
T1 construct: purchased BioLegend 579404
Assay: IL-6 assay in MRC5 cells: inhibition of IL-1β induced IL-6 secretion (AlphaLISA)
Type: cell-based
Settings: inhibition of IL-1β induced IL-6 secretion in MRC5 cells; compound pre-incubated 1 hour with recombinant human IL-1β; read-out: MRC5 IC50
How it was run: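 Compound was pre-incubated 1 h at ambient temperature with recombinant human IL-1β at 2λ EC80 before adding human lung fibroblast MRC5 cells (3000/well) in EMEM with 0.025% BSA. After overnight culture at 37 °C, 5% CO2, secreted IL-6 in conditioned medium was measured by AlphaLISA; IC50 from 4-parameter logistic fits.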

T1 sequence (P01584 117-269): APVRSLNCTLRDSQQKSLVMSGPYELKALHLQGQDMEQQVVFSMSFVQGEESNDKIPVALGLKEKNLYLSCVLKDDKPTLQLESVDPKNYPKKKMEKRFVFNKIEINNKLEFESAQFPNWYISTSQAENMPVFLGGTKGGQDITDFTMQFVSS

| Structure (SMILES) | IC50 [nM] |
| --- | --- |
| C[C@@H](c1c[nH]c2cccc(F)c12)[C@@H]1NC(=O)[C@@H]2C[C@H](F)CN2C(=O)CNC(=O)[C@H](Cc2ccc(C(=O)O)cc2)NC(=O)[C@H](Cc2ccncc2)NC(=O)[C@H](Cc2ccc(-c3ccccc3)cc2)NC(=O)[C@H]2C[C@@H](Cc3ccncc3)CN2C(=O)CNC(=O)[C@H](CCN)NC(=O)[C@H](CCC(N)=O)NC(=O)[C@H](Cc2cnc(C(=O)O)nc2)NC(=O)C(C)(C)NC(=O)[C@H](Cc2c[nH]c3ccccc23)NC(=O)[C@H](CO)NC(=O)C(C)(C)NC1=O [Example 269] (cyclo([Bip][4Pal][Phe(4-COOH)]G[Pro(cis-4-F)][Trp(βS-Me,4-F)][Aib]SW[Aib][Ala(2-carboxypyrimidin-5-yl)]Q[Dab]G[dPro(4R-(4-pyridylmethyl))])) | 0.014 |
| C[C@@H](c1c[nH]c2cccc(F)c12)[C@@H]1NC(=O)[C@@H]2C[C@H](F)CN2C(=O)CNC(=O)[C@H](Cc2ccc(C(=O)O)cc2)NC(=O)[C@H](Cc2ccncc2)NC(=O)[C@H](Cc2ccc(-c3ccc(C(=O)O)cc3)cc2)NC(=O)[C@H]2C[C@@H](Cc3ccncc3)CN2C(=O)CNC(=O)[C@H](CNC(N)=O)NC(=O)[C@H](CCC(N)=O)NC(=O)[C@H](Cc2cncnc2)NC(=O)C(C)(C)NC(=O)[C@H](Cc2c[nH]c3ccccc23)NC(=O)[C@H](CO)NC(=O)C(C)(C)NC1=O [Example 270] (cyclo([Bip(4'-COOH)][4Pal][Phe(4-COOH)]G[Pro(cis-4-F)][Trp(βS-Me,4-F)][Aib]SW[Aib][Ala(pyrimidin-5-yl)]Q[Dap(CONH2)]G[dPro(4R-(4-pyridylmethyl))])) | 0.023 |
| CC(=O)N1CCN(C[C@@H]2NC(=O)C(C)(C)NC(=O)[C@H](Cc3c[nH]c4ccccc34)NC(=O)[C@H](CCC(=O)O)NC(=O)C(C)(C)NC(=O)[C@H]([C@@H](C)c3c[nH]c4cccc(F)c34)NC(=O)[C@@H]3C[C@H](F)CN3C(=O)CNC(=O)[C@H](Cc3ccc(C(=O)O)cc3)NC(=O)[C@H](Cc3ccncc3)NC(=O)[C@H](Cc3ccc(-c4ccc(C(=O)O)cc4)cc3)NC(=O)[C@H]3C[C@@H](Cc4ccc(F)cc4)CN3C(=O)CNC(=O)[C@H](CO)NC(=O)[C@H](CCC(N)=O)NC2=O)CC1 [Example 271] (cyclo([Bip(4'-COOH)][4Pal][Phe(4-COOH)]G[Pro(cis-4-F)][Trp(βS-Me,4-F)][Aib]EW[Aib][X44]QSG[dPro(4R-Bzl(4-F))])) | 0.023 |
| C[C@@H](c1c[nH]c2cccc(F)c12)[C@@H]1NC(=O)[C@@H]2C[C@H](F)CN2C(=O)CNC(=O)[C@H](Cc2ccc(C(=O)O)cc2)NC(=O)[C@H](Cc2ccncc2)NC(=O)[C@H](Cc2ccc(-c3ccc(C(=O)O)cc3)cc2)NC(=O)[C@H]2C[C@@H](Cc3ccc(F)cc3)CN2C(=O)CNC(=O)[C@H](CCN)NC(=O)[C@H](CCC(N)=O)NC(=O)[C@H]([C@@H](O)c2ccncc2)NC(=O)C(C)(C)NC(=O)[C@H](Cc2c[nH]c3ccccc23)NC(=O)[C@H](CO)NC(=O)C(C)(C)NC1=O [Example 272] (cyclo([Bip(4'-COOH)][4Pal][Phe(4-COOH)]G[Pro(cis-4-F)][Trp(βS-Me,4-F)][Aib]SW[Aib][X41]Q[Dab]G[dPro(4R-Bzl(4-F))])) | 0.018 |
| C[C@@H](c1c[nH]c2cccc(F)c12)[C@@H]1NC(=O)[C@@H]2C[C@H](F)CN2C(=O)CNC(=O)[C@H](Cc2ccc(C(=O)O)cc2)NC(=O)[C@H](Cc2ccncc2)NC(=O)[C@H](Cc2ccc(-c3ccc(C(=O)O)cc3)cc2)NC(=O)[C@H]2C[C@@H](Cc3ccc(F)cc3)CN2C(=O)CNC(=O)[C@H](CCN)NC(=O)[C@H](CCC(N)=O)NC(=O)[C@H]([C@H](O)c2ccncc2)NC(=O)C(C)(C)NC(=O)[C@H](Cc2c[nH]c3ccccc23)NC(=O)[C@H](CO)NC(=O)C(C)(C)NC1=O [Example 273] (cyclo([Bip(4'-COOH)][4Pal][Phe(4-COOH)]G[Pro(cis-4-F)][Trp(βS-Me,4-F)][Aib]SW[Aib][X30]Q[Dab]G[dPro(4R-Bzl(4-F))])) | 0.013 |
| C[C@@H](c1c[nH]c2cccc(F)c12)[C@@H]1NC(=O)[C@@H]2C[C@H](F)CN2C(=O)CNC(=O)[C@H](Cc2ccc(C(=O)O)cc2)NC(=O)[C@H]([C@H](O)c2ccncc2)NC(=O)[C@H](Cc2ccc(-c3ccc(C(=O)O)cc3)cc2)NC(=O)[C@H]2C[C@@H](Cc3ccc(F)cc3)CN2C(=O)CNC(=O)[C@H](CCN)NC(=O)[C@H](CCC(N)=O)NC(=O)[C@H](Cc2cncnc2)NC(=O)C(C)(C)NC(=O)[C@H](Cc2c[nH]c3ccccc23)NC(=O)[C@H](CO)NC(=O)C(C)(C)NC1=O [Example 274] (cyclo([Bip(4'-COOH)][X30][Phe(4-COOH)]G[Pro(cis-4-F)][Trp(βS-Me,4-F)][Aib]SW[Aib][Ala(pyrimidin-5-yl)]Q[Dab]G[dPro(4R-Bzl(4-F))])) | 0.026 |
| C[C@@H](c1c[nH]c2cccc(F)c12)[C@@H]1NC(=O)[C@@H]2C[C@H](F)CN2C(=O)CNC(=O)[C@H]([C@H](O)c2ccc(C(=O)O)cc2)NC(=O)[C@H](Cc2ccncc2)NC(=O)[C@H](Cc2ccc(-c3ccc(C(=O)O)cc3)cc2)NC(=O)[C@H]2C[C@@H](Cc3ccc(F)cc3)CN2C(=O)CNC(=O)[C@H](CCN)NC(=O)[C@H](CCC(N)=O)NC(=O)[C@H](Cc2cncnc2)NC(=O)C(C)(C)NC(=O)[C@H](Cc2c[nH]c3ccccc23)NC(=O)[C@H](CO)NC(=O)C(C)(C)NC1=O [Example 275] (cyclo([Bip(4'-COOH)][4Pal][X31]G[Pro(cis-4-F)][Trp(βS-Me,4-F)][Aib]SW[Aib][Ala(pyrimidin-5-yl)]Q[Dab]G[dPro(4R-Bzl(4-F))])) | 0.018 |
| C[C@@H](c1c[nH]c2cccc(F)c12)[C@@H]1NC(=O)[C@@H]2C[C@H](F)CN2C(=O)CNC(=O)[C@H](Cc2ccc(C(=O)O)cc2)NC(=O)[C@H](Cc2ccncc2)NC(=O)[C@H](Cc2ccc(-c3ccc(C(=O)O)cc3)cc2)NC(=O)[C@H]2C[C@@H](Cc3ccc(F)cc3)CN2C(=O)CNC(=O)[C@H](CCN)NC(=O)[C@H](CCC(N)=O)NC(=O)[C@H](Cc2c[nH]cn2)NC(=O)C(C)(C)NC(=O)[C@H](Cc2c[nH]c3ccccc23)NC(=O)[C@H](CCC(=O)O)NC(=O)C(C)(C)NC1=O [Example 276] (cyclo([Bip(4'-COOH)][4Pal][Phe(4-COOH)]G[Pro(cis-4-F)][Trp(βS-Me,4-F)][Aib]EW[Aib]HQ[Dab]G[dPro(4R-Bzl(4-F))])) | 0.017 |

Continued, values first:

| IC50 [nM] | Structure (SMILES) |
| --- | --- |
| 0.023 | C[C@@H](c1c[nH]c2cccc(F)c12)[C@@H]1NC(=O)[C@@H]2C[C@H](F)CN2C(=O)CNC(=O)[C@H](Cc2ccc(C(=O)O)cc2)NC(=O)[C@H](Cc2ccncc2)NC(=O)[C@H](Cc2ccc(F)cc2)NC(=O)[C@H]2[C@@H](Cc3ccc(F)cc3)CCN2C(=O)CNC(=O)[C@H](CCN)NC(=O)[C@H](CCC(N)=O)NC(=O)[C@H](Cc2cncnc2)NC(=O)[C@@](C)(CC(=O)O)NC(=O)[C@H](Cc2c[nH]c3ccccc23)NC(=O)[C@H](CO)NC(=O)C(C)(C)NC1=O [Example 277] (cyclo([Phe(4-F)][4Pal][Phe(4-COOH)]G[Pro(cis-4-F)][Trp(βS-Me,4-F)][Aib]SW[d(αMeD)][Ala(pyrimidin-5-yl)]Q[Dab]G[dPro(3S-(4-F-Bn))])) |
| 0.021 | C[C@@H](c1c[nH]c2cccc(F)c12)[C@@H]1NC(=O)[C@@H]2C[C@H](F)CN2C(=O)CNC(=O)[C@H](Cc2ccc(C(=O)O)cc2)NC(=O)[C@H](Cc2ccncc2)NC(=O)[C@H](Cc2ccc(O)cc2)NC(=O)[C@H]2[C@@H](Cc3ccc(F)cc3)CCN2C(=O)CNC(=O)[C@H](CCN)NC(=O)[C@H](CCC(N)=O)NC(=O)[C@H](Cc2cncnc2)NC(=O)[C@@](C)(CC(=O)O)NC(=O)[C@H](Cc2c[nH]c3ccccc23)NC(=O)[C@H](CO)NC(=O)C(C)(C)NC1=O [Example 278] (cyclo(Y[4Pal][Phe(4-COOH)]G[Pro(cis-4-F)][Trp(βS-Me,4-F)][Aib]SW[d(αMeD)][Ala(pyrimidin-5-yl)]Q[Dab]G[dPro(3S-(4-F-Bn))])) |
| 0.013 | C[C@@H](c1c[nH]c2cccc(F)c12)[C@@H]1NC(=O)[C@@H]2C[C@H](F)CN2C(=O)CNC(=O)[C@H](Cc2ccc(C(=O)O)cc2)NC(=O)[C@H](Cc2ccncc2)NC(=O)[C@H](Cc2ccc(-c3cn(C)cn3)cc2)NC(=O)[C@H]2[C@@H](Cc3ccc(F)cc3)CCN2C(=O)CNC(=O)[C@H](CCN)NC(=O)[C@H](CCC(N)=O)NC(=O)[C@H](Cc2cncnc2)NC(=O)[C@@](C)(CC(=O)O)NC(=O)[C@H](Cc2c[nH]c3ccccc23)NC(=O)[C@H](CO)NC(=O)C(C)(C)NC1=O [Example 279] (cyclo([X32][4Pal][Phe(4-COOH)]G[Pro(cis-4-F)][Trp(βS-Me,4-F)][Aib]SW[d(αMeD)][Ala(pyrimidin-5-yl)]Q[Dab]G[dPro(3S-(4-F-Bn))])) |
| 0.016 | C[C@@H](c1c[nH]c2cccc(F)c12)[C@@H]1NC(=O)[C@@H]2C[C@H](F)CN2C(=O)CNC(=O)[C@H](Cc2ccc(C(=O)O)cc2)NC(=O)[C@H](Cc2ccncc2)NC(=O)[C@H](Cc2ccc(-c3nccn3C)cc2)NC(=O)[C@H]2[C@@H](Cc3ccc(F)cc3)CCN2C(=O)CNC(=O)[C@H](CCN)NC(=O)[C@H](CCC(N)=O)NC(=O)[C@H](Cc2cncnc2)NC(=O)[C@@](C)(CC(=O)O)NC(=O)[C@H](Cc2c[nH]c3ccccc23)NC(=O)[C@H](CO)NC(=O)C(C)(C)NC1=O [Example 280] (cyclo([X12][4Pal][Phe(4-COOH)]G[Pro(cis-4-F)][Trp(βS-Me,4-F)][Aib]SW[d(αMeD)][Ala(pyrimidin-5-yl)]Q[Dab]G[dPro(3S-(4-F-Bn))])) |
| 0.012 | COc1ncc(-c2ccc(C[C@@H]3NC(=O)[C@H]4[C@@H](Cc5ccc(F)cc5)CCN4C(=O)CNC(=O)[C@H](CCN)NC(=O)[C@H](CCC(N)=O)NC(=O)[C@H](Cc4cncnc4)NC(=O)[C@@](C)(CC(=O)O)NC(=O)[C@H](Cc4c[nH]c5ccccc45)NC(=O)[C@H](CO)NC(=O)C(C)(C)NC(=O)[C@H]([C@@H](C)c4c[nH]c5cccc(F)c45)NC(=O)[C@@H]4C[C@H](F)CN4C(=O)CNC(=O)[C@H](Cc4ccc(C(=O)O)cc4)NC(=O)[C@H](Cc4ccncc4)NC3=O)cc2)cn1 [Example 281] (cyclo([X27][4Pal][Phe(4-COOH)]G[Pro(cis-4-F)][Trp(βS-Me,4-F)][Aib]SW[d(αMeD)][Ala(pyrimidin-5-yl)]Q[Dab]G[dPro(3S-(4-F-Bn))])) |
